Assay results: patent US8309550B2, “Kinase inhibitors and their use as pharmaceutical agents” (Shanghai Genomics, Inc., priority 2011, dated 2012)

Experiments:
K562 cells = test: 72 h MTT cytotoxicity assay K562; type: cell-based; conditions: Homo sapiens; K562, 72 hrs
From the text: (§1) MIT cytotoxicity assay. The compounds of the invention were subjected to a standard cellular proliferation assay using human cell lines. HeLa cells (Human cervix adenocarcinoma cell line, ATCC NO, CCL-2); A549 cells (Human lung carcinoma cells line, ATCC NO, CCL-185); U2OS cells (Human osteosarcoma cell line, ATCC NO, HTB-96); Eca-109 cells (Human esophageal carcinoma cell line); HepG2 (Human hepatocellular liver carcinoma cell line, ATCC NO, HB-8065); K562 cells (Human chronic myelogenous leukemia cell line, ATCC NO, CCL-243); SK-MEL-28 (Human malignant melanoma cell line, ATCC NO, HTB-72); Molt-4 (Human acute lymphoblastic leukemia cell line, ATCC NO, CRL-1582); H460 (Human large cell lung cancer cell line, ATCC NO, HTB-177); MDA-MB-231 (Human breast adenocarcinoma cell line, ATCC NO, HTB-26); MCF7 (Human breast adenocarcinoma cell line, ATCC NO, HTB-22); ACHN (Human renal cell adenocarcinoma cell line, ATCC NO, CRL-1611); PC-3M (Human prostate adenocarcinoma cell line, ATCC NO CRL-1435); HL60 (Human acute promyelocytic leukemia cell line, ATCC NO, CCL-240); THP-1 (Human acute monocytic leukemia, ATCC NO, TIB-202); Jurkat (Human acute T cell leukemia cell line, ATCC NO, CRL-2063); HCT-116 (Human colorectal carcinoma cell line, ATCC NO, CCL-247); HT-29 (Human colorectal adenocarcinoma cell line, ATCC NO, HTB-38™); WI-38 (Human normal lung cell line, ATCC NO, CCL-75); MRC-5 (Human normal lung cell line, ATCC NO, CCL-171).
(§2) HepG2, MDA-MB-231, WI-38 and MRC-5 cells were obtained from Shanghai Institute of Cell Biology, Chinese Academy of Sciences (Shanghai 200031, China). A549, HeLa, K562, MCF7, ACHN, H460, U2OS, Eca-109, MCF7, HL60, THP-1, Jurkat, HCT-116, HT-29, PC-3M, SK-MEL-28, Molt-4, H460 and […] cells were purchased from ATCC (American Type Culture Collection, USA).
(§3) Standard 72 h MTT (thiazolye blue; 3-[4,5-dimethylthiazol-2-yl]-2,5-diphenyltetrazolium bromide) assays were performed. Briefly, the cell lines used in this study were recovered and cultured according to the conditions recommended. 4000 cells per well were seeded into 96-well plates according to doubling time and incubated overnight at 37° C. Compounds were prepared in DMSO and a ½ dilution series in 100 μl cell culture media, added to cells (in duplicates) with the final DMSO concentration of 0.025%, and incubated for 72 hrs at 37° C. MTT solution (5 mg/ml) was added at 10 μl per well and incubated in the dark at 37° C. for 4 hr. Culture medium and MTT solution was removed. MTT dye was solubilised with 100 μl per well of DMSO with agitation. Absorbance was read at 562 nm and data analyzed using Sigmoid curve-fitting software Origin 6.0 (MicroCal, LLC, USA) to determine IC50 value.

CDK5/p35 = target: T1, CDK5/p35 (Homo sapiens, UniProt Q00535); test: Z'-LYTE kinase assay CDK5/p35; type: biochemical; conditions: read-out: Kinase inhibition, IC50 CDK5/p35
T1 construct: purchased Invitrogen PV3000
Method: (§4) Kinase assays. The compounds from the example above were tested for their ability to inhibit kinases. Recombinant human CDK2/cyclinA (PV3267), CDK1/cyclinB (PV3292), CDK5/p35 (PV3000) and Aurora A (PV3612) were purchased from Invitrogen (Carlsbad, Calif., USA). Kinase dosage and Z′-LYTE™ substrate for each kinase assay is as follows: CDK2/cyclinA-8 ng/reaction, Ser/Thr 12 Peptide; CDK1/cyclinB-0.8 ng/reaction, Ser/Thr 12 Peptide, CDK5/p35-0.8 ng/reaction, Ser/Thr 12 Peptide, and Aurora A-16 ng/reaction, Ser/Thr 1 Peptide. All enzymatic assays were performed using Z′-LYTE™ Kinase Assay Kits and were carried out following protocols provided by Invitrogen. To prepare stock solutions, compounds were dissolved at 10 mM in 100% DMSO and stored at 4° C. in amber glass vials. Enzyme reactions were initiated by adding recombinant enzyme and Z′-LYTE™ Ser/Thr peptide substrate and ATP mixture to 384-well plates containing diluted test compounds. Kinase and corresponding peptide substrate were incubated for 1 hr at room temperature in the presence of varying amounts of test compound with reaction buffer (20 μM ATP, […] [pH 7.5], 5 mM MgCl2, 0.5 mM EGTA, 0.005% Brij-35). Development buffer was added and incubated for another one hour at room temperature. Reactions were terminated by addition of stop buffer, and fluorescence emission intensity ratio 445 nm/520 nm (excited at 400 nm) was quantified by VICTOR-3 Multilabel Reader (Perkin-Elmer, Waltham, Mass., USA). Phosphorylation was calculated from the emission ratio. IC50 was determined using Sigmoid curve-fitting software Origin 6.0 (MicroCal, LLC, Northampton, Mass., USA).

MCF7 = test: 72 h MTT cytotoxicity assay MCF7; type: cell-based; conditions: Homo sapiens; MCF7, 72 hrs
From the text: as §1, §2, §3

HeLa cells = test: 72 h MTT cytotoxicity assay HeLa; type: cell-based; conditions: Homo sapiens
From the text: as §1, §2, §3

Eca-109 cells = test: 72 h MTT cytotoxicity assay Eca-109; type: cell-based; conditions: Homo sapiens; Eca-109, 72 hrs
From the text: as §1, §2, §3

SK-MEL-28-luc = test: 72 h MTT cytotoxicity assay SK-MEL-28-luc; type: cell-based; conditions: Homo sapiens
From the text: as §1, §2, §3

Molt-4-luc = test: 72 h MTT cytotoxicity assay Molt-4-luc; type: cell-based; conditions: Homo sapiens
From the text: as §1, §2, §3

WI-38 = test: 72 h MTT cell viability WI-38 (normal lung); type: cell-based; conditions: Homo sapiens; WI-38, normal lung cell line
From the text: as §1, §2, §3

U2OS cells = test: 72 h MTT cytotoxicity assay U2OS; type: cell-based; conditions: Homo sapiens
From the text: as §1, §2, §3

CDK2/cyclinA = target: T2, CDK2/cyclinA (Homo sapiens, UniProt P24941); test: Z'-LYTE kinase assay CDK2/cyclinA; type: biochemical; conditions: read-out: Kinase inhibition, IC50 CDK2A
T2 construct: purchased Invitrogen PV3267
Method: as §4

ACHN-luc = test: 72 h MTT cell viability ACHN-luc; type: cell-based; conditions: Homo sapiens
From the text: as §1, §2, §3

Aurora A = target: T3, Aurora A (Homo sapiens, UniProt O14965); test: Z'-LYTE kinase assay Aurora A; type: biochemical; conditions: read-out: Kinase inhibition, IC50 Aurora A
T3 construct: purchased Invitrogen PV3612
T3 sequence (O14965 1-403): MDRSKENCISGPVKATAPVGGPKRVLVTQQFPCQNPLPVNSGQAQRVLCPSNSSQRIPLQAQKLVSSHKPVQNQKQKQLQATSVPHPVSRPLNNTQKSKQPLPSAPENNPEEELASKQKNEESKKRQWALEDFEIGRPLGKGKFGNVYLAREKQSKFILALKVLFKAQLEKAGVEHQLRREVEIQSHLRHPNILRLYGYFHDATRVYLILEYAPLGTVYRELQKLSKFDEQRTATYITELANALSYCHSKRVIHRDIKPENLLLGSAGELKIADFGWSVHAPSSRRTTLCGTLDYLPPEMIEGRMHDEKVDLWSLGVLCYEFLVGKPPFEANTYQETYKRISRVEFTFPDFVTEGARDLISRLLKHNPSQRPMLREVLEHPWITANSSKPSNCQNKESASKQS
Method: as §4

HepG2 = test: 72 h MTT cytotoxicity assay HepG2; type: cell-based; conditions: Homo sapiens; HepG2, 72 hrs
From the text: as §1, §2, §3

Aurora B = Aurora B (Homo sapiens, UniProt Q96GD4); test: Kinase assay Aurora B (Table I); type: biochemical; conditions: read-out: Kinase inhibition, IC50 Aurora B
Method: [The source words this procedure for another target and reports this target under the same test.] as §4

CDK1/cyclinB = target: T4, CDK1/cyclinB (Homo sapiens, UniProt P06493); test: Z'-LYTE kinase assay CDK1/cyclinB; type: biochemical; conditions: read-out: Kinase inhibition, IC50 CDK1B
T4 construct: purchased Invitrogen PV3292
Method: as §4

MDA-MB-231-luc = test: 72 h MTT cell viability MDA-MB-231-luc; type: cell-based; conditions: Homo sapiens
From the text: as §1, §2, §3

A549 cells = test: 72 h MTT cytotoxicity assay A549; type: cell-based; conditions: Homo sapiens; A549, 72 hrs
From the text: as §1, §2, §3

H460-luc = test: 72 h MTT cytotoxicity assay H460-luc; type: cell-based; conditions: Homo sapiens, NCI-H460-Luc; H460-luc, 72 hrs; read-out: Cytotoxicity, MTT 72 hrs, IC50 H460-luc
From the text: as §1, §2, §3

THP-1 = test: 72 h MTT cell viability THP-1; type: cell-based; conditions: Homo sapiens, THP-1; read-out: Cell Viability IC50 THP-1
From the text: as §1, §2, §3

PC-3M-luc = test: 72 h MTT cell viability PC-3M-luc; type: cell-based; conditions: Homo sapiens
From the text: as §1, §2, §3

HL-60 = test: 72 h MTT cell viability HL-60; type: cell-based; conditions: Homo sapiens
From the text: as §1, §2, §3

CDK9T1 = CDK9T1 (Homo sapiens, UniProt P50750); test: Kinase assay CDK9T1 (Table I); type: biochemical; conditions: read-out: Kinase inhibition, IC50 CDK9T1
Method: [The source words this procedure for another target and reports this target under the same test.] as §4

T1 sequence (Q00535 whole entry): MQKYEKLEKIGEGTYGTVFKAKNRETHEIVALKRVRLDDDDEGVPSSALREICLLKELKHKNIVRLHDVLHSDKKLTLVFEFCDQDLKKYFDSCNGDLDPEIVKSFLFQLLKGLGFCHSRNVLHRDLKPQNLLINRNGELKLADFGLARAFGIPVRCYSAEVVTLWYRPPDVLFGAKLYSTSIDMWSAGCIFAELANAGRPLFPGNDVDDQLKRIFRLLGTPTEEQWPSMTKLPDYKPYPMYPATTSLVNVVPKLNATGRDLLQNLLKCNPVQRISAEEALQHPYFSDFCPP
T1 sequence (Q15078 whole entry partner): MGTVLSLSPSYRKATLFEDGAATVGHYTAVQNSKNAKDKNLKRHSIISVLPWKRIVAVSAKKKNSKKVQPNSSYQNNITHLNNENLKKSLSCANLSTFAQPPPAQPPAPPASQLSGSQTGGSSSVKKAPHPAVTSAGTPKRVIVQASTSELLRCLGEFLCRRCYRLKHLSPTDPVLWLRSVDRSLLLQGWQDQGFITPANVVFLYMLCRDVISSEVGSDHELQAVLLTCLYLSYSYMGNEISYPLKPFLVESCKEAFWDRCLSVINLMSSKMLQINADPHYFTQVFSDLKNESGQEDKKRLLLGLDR
T4 sequence (P06493 whole entry): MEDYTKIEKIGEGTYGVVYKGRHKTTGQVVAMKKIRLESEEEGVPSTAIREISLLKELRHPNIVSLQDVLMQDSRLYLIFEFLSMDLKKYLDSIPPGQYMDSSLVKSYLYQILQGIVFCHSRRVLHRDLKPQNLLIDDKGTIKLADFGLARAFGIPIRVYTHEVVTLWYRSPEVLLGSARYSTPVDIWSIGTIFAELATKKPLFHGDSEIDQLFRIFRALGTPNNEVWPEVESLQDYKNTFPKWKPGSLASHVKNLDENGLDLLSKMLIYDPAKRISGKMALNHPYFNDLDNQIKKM
T4 sequence (P14635 whole entry partner): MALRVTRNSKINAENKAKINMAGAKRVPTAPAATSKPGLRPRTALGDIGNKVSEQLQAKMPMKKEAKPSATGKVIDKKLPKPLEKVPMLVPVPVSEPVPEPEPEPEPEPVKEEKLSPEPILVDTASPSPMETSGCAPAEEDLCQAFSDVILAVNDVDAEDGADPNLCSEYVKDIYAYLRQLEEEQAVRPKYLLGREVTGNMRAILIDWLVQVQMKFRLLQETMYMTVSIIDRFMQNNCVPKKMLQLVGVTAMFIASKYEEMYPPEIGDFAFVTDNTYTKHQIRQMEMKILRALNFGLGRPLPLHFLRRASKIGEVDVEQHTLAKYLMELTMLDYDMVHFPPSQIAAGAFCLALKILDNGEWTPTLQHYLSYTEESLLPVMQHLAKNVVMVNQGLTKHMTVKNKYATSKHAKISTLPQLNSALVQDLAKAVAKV
Sequence of CDK9T1 (P50750 whole entry): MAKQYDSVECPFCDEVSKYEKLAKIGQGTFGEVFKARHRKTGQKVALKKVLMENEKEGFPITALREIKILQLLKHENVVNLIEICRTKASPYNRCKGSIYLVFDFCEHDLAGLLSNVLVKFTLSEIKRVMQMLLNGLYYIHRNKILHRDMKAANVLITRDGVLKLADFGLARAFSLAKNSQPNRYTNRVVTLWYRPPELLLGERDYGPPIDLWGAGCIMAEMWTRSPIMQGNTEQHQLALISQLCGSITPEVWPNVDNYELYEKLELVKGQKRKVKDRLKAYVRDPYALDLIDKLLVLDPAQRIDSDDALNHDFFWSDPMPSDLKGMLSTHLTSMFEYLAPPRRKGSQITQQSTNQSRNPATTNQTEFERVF
Sequence of CDK9T1 (O60563 whole entry partner): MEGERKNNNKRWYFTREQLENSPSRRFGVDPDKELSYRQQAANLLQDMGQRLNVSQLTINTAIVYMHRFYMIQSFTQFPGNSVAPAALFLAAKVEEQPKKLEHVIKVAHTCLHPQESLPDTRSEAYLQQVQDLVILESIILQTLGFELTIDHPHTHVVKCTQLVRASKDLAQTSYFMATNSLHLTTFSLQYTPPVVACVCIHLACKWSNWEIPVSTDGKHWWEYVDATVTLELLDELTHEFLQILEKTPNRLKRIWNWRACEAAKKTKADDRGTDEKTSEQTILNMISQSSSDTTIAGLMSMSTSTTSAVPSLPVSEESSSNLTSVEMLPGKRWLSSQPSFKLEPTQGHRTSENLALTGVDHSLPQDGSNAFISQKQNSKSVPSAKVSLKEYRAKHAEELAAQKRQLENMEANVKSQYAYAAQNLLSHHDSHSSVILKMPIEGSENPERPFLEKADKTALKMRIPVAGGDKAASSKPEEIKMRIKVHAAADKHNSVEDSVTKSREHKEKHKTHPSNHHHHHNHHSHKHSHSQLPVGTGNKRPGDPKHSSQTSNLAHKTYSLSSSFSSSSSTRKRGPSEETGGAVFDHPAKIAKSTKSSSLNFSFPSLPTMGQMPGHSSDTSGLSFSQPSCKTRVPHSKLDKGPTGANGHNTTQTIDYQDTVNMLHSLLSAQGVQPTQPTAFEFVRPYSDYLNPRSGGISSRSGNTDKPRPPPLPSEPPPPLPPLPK
Sequence of Aurora B (Q96GD4 whole entry): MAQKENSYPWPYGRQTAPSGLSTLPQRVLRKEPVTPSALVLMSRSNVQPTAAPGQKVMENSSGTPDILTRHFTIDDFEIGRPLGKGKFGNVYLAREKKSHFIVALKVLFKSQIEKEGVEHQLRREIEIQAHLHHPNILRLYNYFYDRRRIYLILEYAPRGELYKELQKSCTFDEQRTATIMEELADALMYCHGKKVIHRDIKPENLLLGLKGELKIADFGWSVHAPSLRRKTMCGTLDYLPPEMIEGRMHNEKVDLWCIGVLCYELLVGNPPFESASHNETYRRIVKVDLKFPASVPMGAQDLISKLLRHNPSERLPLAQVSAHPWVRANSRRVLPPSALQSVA

| Structure (SMILES) | IC50 (K562 cells) [nM] | IC50 (CDK5/p35) [nM] | IC50 (MCF7) [nM] | IC50 (HeLa cells) [nM] | IC50 (Eca-109 cells) [nM] | IC50 (SK-MEL-28-luc) [nM] | IC50 (Molt-4-luc) [nM] | IC50 (WI-38) [nM] | IC50 (U2OS cells) [nM] | IC50 (CDK2/cyclinA) [nM] | IC50 (ACHN-luc) [nM] | IC50 (Aurora A) [nM] | IC50 (HepG2) [nM] | IC50 (Aurora B) [nM] | IC50 (CDK1/cyclinB) [nM] | IC50 (MDA-MB-231-luc) [nM] | IC50 (A549 cells) [nM] | IC50 (H460-luc) [nM] | IC50 (CDK9T1) [nM] | further results |
| --- | --- | --- | --- | --- | --- | --- | --- | --- | --- | --- | --- | --- | --- | --- | --- | --- | --- | --- | --- | --- |
| Cn1cc(-c2ccnc(Nc3cccc(O)c3)n2)c2ccccc21 [Compound 1, 3-(4-(1-Methyl-1H-indol-3-yl)pyrimidin-2-ylamino)phenol] | 4780 | 2610 | 10100 | 4700 | 14200 | 6470 | 6400 | > 10000 | 5990 | 543 | 9820 | 280 | 4550 | 340 | 2500 | 6330 | 6030 | 6190 |  |  |
| CCn1cc(-c2ccnc(Nc3cccc(S(N)(=O)=O)c3)n2)c2ccnc(Cl)c21 [Compound 73, 3-(4-(7-Chloro-1-ethyl-1H-pyrrolo[2,3-c]pyridin-3-yl)pyrimidin-2-ylamino)benzenesulfonamide] |  | 190 |  |  | > 10000 | 490 | 430 | > 10000 | 410 | 3.8 | 510 | 1280 | 180 |  | 180 | 440 | 370 | 315 | 24 | IC50 (THP-1): 2740 nM; IC50 (PC-3M-luc): 890 nM; IC50 (HL-60): 430 nM |
| CCn1cc(-c2ccnc(Nc3cccc(C(N)=O)c3)n2)c2cccnc21 [Compound 19, 3-(4-(1-Ethyl-1H-pyrrolo[2,3-b]pyridin-3-yl)pyrimidin-2-ylamino)benzamide] | 15400 | 3180 | 3960 | 4330 | > 10000 | > 10000 | 6660 | > 10000 | 9540 | 272 | 3460 | 290 | 1410 | 1440 | 1340 | 8510 | 3430 | 3630 | 110 |  |
